Assay results from US7572806B2, “PPAR active compounds” (Plexxikon, Inc., priority 2003, dated 2009).
Like-named read-outs stand apart in the source and are kept apart here.

Experiments:
PPARδ [1] = biological target: T1, PPARδ (Homo sapiens, UniProt Q03181); assay: Alpha screen assay, agonist mode, ligand dependent interaction of PPAR with coactivator peptide; format: biochemical
T1 sequence (Q03181 1-441): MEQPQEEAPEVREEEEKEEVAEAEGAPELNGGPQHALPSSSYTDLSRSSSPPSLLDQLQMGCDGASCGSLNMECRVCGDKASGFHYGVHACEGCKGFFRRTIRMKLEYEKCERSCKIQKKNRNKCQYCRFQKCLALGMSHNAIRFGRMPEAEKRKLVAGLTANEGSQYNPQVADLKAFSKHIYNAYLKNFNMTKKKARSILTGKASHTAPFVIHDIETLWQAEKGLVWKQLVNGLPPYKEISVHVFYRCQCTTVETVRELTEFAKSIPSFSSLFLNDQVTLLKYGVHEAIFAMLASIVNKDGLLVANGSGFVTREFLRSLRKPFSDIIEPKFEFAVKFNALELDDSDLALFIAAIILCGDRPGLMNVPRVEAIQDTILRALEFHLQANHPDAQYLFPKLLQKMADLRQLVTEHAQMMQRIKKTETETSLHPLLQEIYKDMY
Protocol: (§1) The homogenous Alpha screen assay was used in the agonist mode to determine the ligand dependent interaction of the PPARs (α,δ,γ) with the coactivator peptides (SRC or DRIP205). Briefly 15 ul of the reaction mix (50 mM Tris pH 7.5, 50 mM Kcl, 0.05% Tween 20, 1 mM DTT, 0.1% BSA and 10 nM-200 nMPPAR and […] coactivator peptide) was added to the test compound (1 ul compound in DMSO) and preincubated for 1-6 hr. Next, 5 ul of the Alpha screen beads were added. The reactions were incubated for 2 hrs before taking the reading in the Fusion alpha instrument. In the antagonist mode compounds were assayed for inhibition of the co-activator binding signal caused by the control agonists for each receptor.
(§2) The controls agonists used were WY-14643(PPAR(α), farglitazar (PPAR(γ) and bezafibrate (PPAR(δ).
(§3) Using the assay above, compounds from Table 1 were analyzed for activity. The data reported in Table 2 was generated via the alpha screen assay and expressed in μMol/L. The data points from the Fusion alpha instrument were transferred to Assay Explorer® (MDL) to generate a curve and calculate the inflection point of the curve as EC50.

PPARγ = biological target: T2, PPARγ (Homo sapiens, UniProt P37231); assay: as above; format: biochemical; details: for EC50: Alpha screen
T2 sequence (P37231 1-505): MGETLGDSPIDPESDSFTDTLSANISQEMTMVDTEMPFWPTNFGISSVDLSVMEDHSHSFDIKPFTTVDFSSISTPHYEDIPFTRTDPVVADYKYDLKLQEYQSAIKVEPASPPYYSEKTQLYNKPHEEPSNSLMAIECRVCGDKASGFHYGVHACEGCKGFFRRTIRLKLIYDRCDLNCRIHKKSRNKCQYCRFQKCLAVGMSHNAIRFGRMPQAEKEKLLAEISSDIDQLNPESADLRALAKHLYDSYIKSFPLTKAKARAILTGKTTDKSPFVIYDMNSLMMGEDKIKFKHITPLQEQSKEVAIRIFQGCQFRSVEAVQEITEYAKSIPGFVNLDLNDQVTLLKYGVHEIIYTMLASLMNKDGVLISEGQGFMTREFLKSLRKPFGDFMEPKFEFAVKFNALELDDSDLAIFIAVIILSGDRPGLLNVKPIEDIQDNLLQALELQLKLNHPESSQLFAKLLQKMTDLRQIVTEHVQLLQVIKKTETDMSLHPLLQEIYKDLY
Protocol: as §1, §2, §3

PPARα = biological target: T3, PPARα (Homo sapiens, UniProt Q07869); assay: as above; format: biochemical
T3 sequence (Q07869 1-468): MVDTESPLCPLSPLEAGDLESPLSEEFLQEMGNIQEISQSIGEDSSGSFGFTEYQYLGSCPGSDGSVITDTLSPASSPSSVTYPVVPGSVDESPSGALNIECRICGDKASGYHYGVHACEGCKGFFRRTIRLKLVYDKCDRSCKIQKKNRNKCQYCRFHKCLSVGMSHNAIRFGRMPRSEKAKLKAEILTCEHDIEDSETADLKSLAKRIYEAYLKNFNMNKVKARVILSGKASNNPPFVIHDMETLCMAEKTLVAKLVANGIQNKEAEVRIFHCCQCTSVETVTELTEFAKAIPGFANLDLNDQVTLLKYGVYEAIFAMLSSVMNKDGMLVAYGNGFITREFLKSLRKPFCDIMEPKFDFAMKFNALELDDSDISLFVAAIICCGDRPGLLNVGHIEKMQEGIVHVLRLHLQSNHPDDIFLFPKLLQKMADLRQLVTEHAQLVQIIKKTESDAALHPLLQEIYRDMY
Protocol: as §1, §2, §3

PPARs (α,δ,γ) = assay: Alpha screen assay, pan-activity across the PPARs; format: biochemical, human; details: PPARα, PPARδ and PPARγ
Protocol: as §1, §2, §3

[2] = large prospective trial; cited from earlier work
PPARδ [3] = biological target: T1, PPARδ; details: cited from earlier work
murine PPARα = biological target: T4, murine PPARα (Mus musculus, UniProt P23204); details: cited from earlier work
T4 sequence (P23204 1-468): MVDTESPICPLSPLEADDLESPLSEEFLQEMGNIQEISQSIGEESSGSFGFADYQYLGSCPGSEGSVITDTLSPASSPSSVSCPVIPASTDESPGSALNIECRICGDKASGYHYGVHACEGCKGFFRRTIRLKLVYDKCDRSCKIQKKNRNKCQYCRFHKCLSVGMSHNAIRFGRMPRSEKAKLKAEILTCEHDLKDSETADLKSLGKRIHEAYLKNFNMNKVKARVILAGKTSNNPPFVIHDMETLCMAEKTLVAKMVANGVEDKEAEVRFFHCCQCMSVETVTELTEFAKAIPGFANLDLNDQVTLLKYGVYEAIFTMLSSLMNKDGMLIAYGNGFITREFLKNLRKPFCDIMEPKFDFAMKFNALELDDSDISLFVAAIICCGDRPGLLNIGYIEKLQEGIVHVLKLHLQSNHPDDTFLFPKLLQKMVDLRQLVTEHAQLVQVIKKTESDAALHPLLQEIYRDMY

[4] = agonist mode, read-out: PPARδ Agonist
[5] = agonist mode, read-out: PPARγ Agonist
[6] = agonist mode, read-out: PPARα agonist

SMILES | EC50 (PPARδ [1]; [4]) | EC50 (PPARγ; [5]) | EC50 (PPARα; [6]) | also measured
CCc1ccc2c(c1)c(CCC(=O)O)cn2S(=O)(=O)c1ccccc1 [compound 6, 3-(1-Benzenesulfonyl-5-ethyl-1H-indol-3-yl)-propionic acid] | > 10 µM | ≤ 10 µM | > 10 µM | EC50 (PPARδ [1]; read-out: activity on PPARδ): ≥ 200 µM; EC50 (PPARγ; read-out: activity on PPARγ): ~8 µM; selectivity (PPARγ; PPARγ versus PPARα and δ): selective for PPARγ; EC50 (PPARα; read-out: activity on PPARα): ≥ 200 µM
COc1ccc2c(c1)c(CCC(=O)O)cn2C(=O)Nc1ccccc1 [compound 85, 3-(5-Methoxy-1-phenylcarbamoyl-1H-indol-3-yl)-propionic acid] | > 10 µM | > 10 µM | > 10 µM | –
COc1ccc2c(c1)c(CCC(=O)O)cn2C(=O)c1ccccc1 [compound 81, 3-(1-Benzoyl-5-methoxy-1H-indol-3-yl)-propionic acid] | > 10 µM | > 10 µM | ≤ 10 µM | –
O=C(O)CCc1cn(S(=O)(=O)c2ccccc2)c2ccc(-c3ccsc3)cc12 [compound 92, 3-(Benzenesulfonyl-5-thiophen-3-yl-1H-indol-3-yl)-propionic acid] | > 10 µM | ≤ 10 µM | ≤ 10 µM | –
CCCCOc1ccc(S(=O)(=O)n2cc(CCC(=O)O)c3cc(OC)ccc32)cc1 [compound 43, 3-[1-(4-Butoxy-benzenesulfonyl)-5-methoxy-1H-indol-3-yl]-propionic acid] | ≤ 10 µM | ≤ 10 µM | ≤ 10 µM | pan-activity (PPARs (α,δ,γ)): low micromolar or even sub-micromolar
Cc1ccc(C)c(OCCCC(C)(C)C(=O)O)c1 [gemfibrozil] | – | – | – | reduction in cardiovascular events or death [2]: 22%
COc1ccc2c(c1)c(CCC(=O)O)cn2C(=S)Nc1ccccc1 [compound 75, 3-(5-Methoxy-1-phenylthiocarbamoyl-1H-indol-3-yl)-propionic acid] | > 10 µM | > 10 µM | > 10 µM | –
CCCc1c(OCCCOc2ccc(OCC(=O)O)cc2)ccc(C(C)=O)c1O [L-165041] | – | – | – | agonist selectivity for PPARδ over PPARγ (PPARδ [3]): approximately 30 fold; activity on murine PPARα (murine PPARα): inactive
COc1ccc2c(c1)c(CCC(=O)O)cn2Cc1ccccc1 [compound 71, 3-(1-Benzyl-5-methoxy-1H-indol-3-yl)-propionic acid] | > 10 µM | > 10 µM | ≤ 10 µM | –
O=C(O)CCc1cn(S(=O)(=O)c2ccccc2)c2ccccc12 [compound 97, 3-(1-Benzenesulfonyl-1H-indol-3-yl)-propionic acid] | > 10 µM | > 10 µM | > 10 µM | –

More lines, main results first:

EC50 (PPARδ [1]; [4]) | EC50 (PPARγ; [5]) | EC50 (PPARα; [6]) | SMILES | also measured
> 10 µM | > 10 µM | > 10 µM | O=C(O)CCc1nn(S(=O)(=O)c2ccccc2)c2ccccc12 [compound 39, 3-(1-Benzenesulfonyl-1H-indazol-3-yl)-propionic acid] | –
≤ 10 µM | ≤ 10 µM | ≤ 10 µM | COc1ccc2c(c1)c(CCC(=O)O)cn2S(=O)(=O)c1ccc(Cl)cc1 [compound 49, 3-[1-(4-Chloro-benzenesulfonyl)-5-methoxy-1H-indol-3-yl]-propionic acid] | –
≤ 10 µM | ≤ 10 µM | ≤ 10 µM | COc1ccc2c(c1)c(CCC(=O)O)cn2S(=O)(=O)c1cccc(OC(F)(F)F)c1 [compound 79, 3-[5-Methoxy-1-(3-trifluoromethoxy-benzenesulfonyl)-1H-indol-3-yl]-propionic acid] | –
≤ 10 µM | ≤ 10 µM | ≤ 10 µM | COc1ccc2c(c1)c(CCC(=O)O)cn2S(=O)(=O)c1ccc(Cl)c(Cl)c1 [compound 53, 3-[1-(3,4-Dichloro-benzenesulfonyl)-5-methoxy-1H-indol-3-yl]-propionic acid] | pan-activity (PPARs (α,δ,γ)): low micromolar or even sub-micromolar
≤ 10 µM | ≤ 10 µM | ≤ 10 µM | CCCCc1ccc(S(=O)(=O)n2cc(CCC(=O)O)c3cc(OC)ccc32)cc1 [compound 77, 3-[1-(4-Butyl-benzenesulfonyl)-5-methoxy-1H-indol-3-yl]-propionic acid] | –
≤ 10 µM | ≤ 10 µM | ≤ 10 µM | COc1ccc2c(c1)c(CCC(=O)O)cn2S(=O)(=O)c1ccccc1 [compound 29, 3-(1-Benzenesulfonyl-5-methoxy-1H-indol-3-yl)-propionic acid] | pan-activity (PPARs (α,δ,γ)): low micromolar or even sub-micromolar
≤ 10 µM | ≤ 10 µM | ≤ 10 µM | CCOc1ccc2c(c1)c(CCC(=O)O)cn2S(=O)(=O)c1ccccc1 [compound 82, 3-(1-Benzenesulfonyl-5-ethoxy-1H-indol-3-yl)-propionic acid] | –
